# Reference: patent US9050376B2 (priority 2007, dated 2015)
# “Also recorded” adds a separate entry of the source.
# What was measured:
# B. anthracis = system: B. anthracis; set-up: species or system A/J mice; conditions: mouse, in vivo
# [1] = system: bone-marrow-derived macrophages (BMDM); type: cell-based, mouse; conditions: 24 hours incubation
# [2] = set-up: species or system C57BL/6 mice; conditions: mouse, in vivo, iv
# TLR7 = biological target: T1, TLR7 (Homo sapiens, UniProt Q9NYK1); assay: TLR transformants, TLR7 agonist specificity and potency; type: cell-based
# T1 construct: expressed in transfected cells
# T1 sequence (Q9NYK1 27-1049): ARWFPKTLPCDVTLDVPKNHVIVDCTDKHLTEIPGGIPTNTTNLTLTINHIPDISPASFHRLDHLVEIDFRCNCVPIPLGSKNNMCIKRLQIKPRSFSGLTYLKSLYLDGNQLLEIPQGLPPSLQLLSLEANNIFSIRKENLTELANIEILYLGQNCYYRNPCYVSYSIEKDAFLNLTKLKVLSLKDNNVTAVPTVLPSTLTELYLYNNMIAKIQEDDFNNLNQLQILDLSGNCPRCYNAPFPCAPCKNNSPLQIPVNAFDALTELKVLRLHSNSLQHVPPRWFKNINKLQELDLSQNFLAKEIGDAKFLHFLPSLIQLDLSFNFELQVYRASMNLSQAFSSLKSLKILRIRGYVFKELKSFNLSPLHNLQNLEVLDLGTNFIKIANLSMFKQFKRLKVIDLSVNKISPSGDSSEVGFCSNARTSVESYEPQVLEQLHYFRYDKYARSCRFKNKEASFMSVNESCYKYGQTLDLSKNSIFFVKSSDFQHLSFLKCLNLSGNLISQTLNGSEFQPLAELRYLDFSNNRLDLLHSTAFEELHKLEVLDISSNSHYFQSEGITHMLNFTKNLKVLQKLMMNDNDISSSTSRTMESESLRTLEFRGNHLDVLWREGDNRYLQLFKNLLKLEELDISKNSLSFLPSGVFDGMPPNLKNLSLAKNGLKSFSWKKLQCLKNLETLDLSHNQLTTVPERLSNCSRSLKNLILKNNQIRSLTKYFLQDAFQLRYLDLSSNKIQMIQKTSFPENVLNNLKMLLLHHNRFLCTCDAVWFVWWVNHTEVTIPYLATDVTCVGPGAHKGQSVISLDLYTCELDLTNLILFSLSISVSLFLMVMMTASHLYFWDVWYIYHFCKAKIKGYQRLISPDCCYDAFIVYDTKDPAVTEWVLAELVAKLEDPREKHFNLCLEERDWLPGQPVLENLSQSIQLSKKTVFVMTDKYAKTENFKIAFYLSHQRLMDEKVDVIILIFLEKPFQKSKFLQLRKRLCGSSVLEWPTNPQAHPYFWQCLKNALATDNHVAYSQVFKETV
# [3] = set-up: species or system C57BL/6 mice; conditions: mouse, in vivo
# anthrax infection = conditions: in vivo
# [4] = system: B16 melanoma tumor cells expressing the cOVA transgene; set-up: species or system C57/B1 mice; conditions: mouse, in vivo
compound,measurement,setting,value
"COCCOc1nc(N)c2nc(O)n(Cc3ccc(C=O)cc3)c2n1 [UC-1V150, 4-[6-amino-8-hydroxy-2-(2-methoxyethoxy)purin-9-ylmethyl]benzaldehyde]",effect on survival / protection,B. anthracis,no significant difference; also recorded: failed to protect
same,cytokine release / activation of BMDM,[1],stimulated cytokine release; also recorded: active at nanomolar concentrations
same,time of peak serum cytokine levels,[2],about 2 hours
same,TLR specificity,TLR7,specific TLR7 agonist
same,cytokine production in the BALF,[3],induced selective cytokine production
O=C(O)c1cn(C2CC2)c2cc(N3CCNCC3)c(F)cc2c1=O [ciprofloxacin],survival,anthrax infection,15-25%
"chicken ovalbumin: antigen alone, comparator",median survival,[4],22 days
